Holding throughout (assay): SelectScreen Kinase Profiling, single point inhibition and IC50 for off-target kinases
Common to all, as to format: biochemical

The target in experiment [1] is off-target kinases (Homo sapiens, UniProt P06239). The settings on record: LCK, ZLYTE, ATP Km app.
Experiment [2] has as its target T1, off-target kinases (Homo sapiens, UniProt P41743).
T1 sequence (P41743 1-596): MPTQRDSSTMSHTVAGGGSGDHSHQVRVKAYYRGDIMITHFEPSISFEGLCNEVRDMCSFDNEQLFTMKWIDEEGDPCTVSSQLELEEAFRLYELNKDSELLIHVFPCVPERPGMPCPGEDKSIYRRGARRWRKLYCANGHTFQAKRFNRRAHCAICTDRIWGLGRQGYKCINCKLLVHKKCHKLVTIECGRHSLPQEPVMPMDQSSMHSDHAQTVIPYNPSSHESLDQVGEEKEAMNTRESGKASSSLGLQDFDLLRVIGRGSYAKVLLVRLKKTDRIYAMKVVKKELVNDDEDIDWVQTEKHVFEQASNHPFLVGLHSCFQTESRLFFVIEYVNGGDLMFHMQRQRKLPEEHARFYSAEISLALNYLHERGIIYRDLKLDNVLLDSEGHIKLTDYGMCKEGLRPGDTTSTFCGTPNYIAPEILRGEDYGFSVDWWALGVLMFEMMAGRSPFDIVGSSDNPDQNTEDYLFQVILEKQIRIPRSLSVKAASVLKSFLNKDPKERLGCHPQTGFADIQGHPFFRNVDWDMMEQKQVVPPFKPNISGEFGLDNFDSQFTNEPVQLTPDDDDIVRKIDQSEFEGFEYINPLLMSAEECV
The settings on record: PRKCI (PKC iota), ZLYTE, ATP Km app.

The target in experiment [3] is T2, off-target kinases (Homo sapiens, UniProt O94768).
T2 sequence (O94768 1-372): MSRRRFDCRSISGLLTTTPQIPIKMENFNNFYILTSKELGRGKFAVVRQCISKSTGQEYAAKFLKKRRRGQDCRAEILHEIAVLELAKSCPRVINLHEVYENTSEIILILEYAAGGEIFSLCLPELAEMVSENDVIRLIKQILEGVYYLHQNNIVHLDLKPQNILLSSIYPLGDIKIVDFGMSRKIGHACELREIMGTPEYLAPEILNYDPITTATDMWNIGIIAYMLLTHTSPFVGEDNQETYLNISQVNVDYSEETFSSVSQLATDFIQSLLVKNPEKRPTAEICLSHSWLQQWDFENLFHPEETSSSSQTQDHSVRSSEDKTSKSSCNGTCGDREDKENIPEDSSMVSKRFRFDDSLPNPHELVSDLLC
As to conditions: STK17B (DRAK2), LanthaScreen Binding.

The target of experiment [4] is off-target kinases (Homo sapiens, UniProt Q9H0K1). The settings on record: SNF1LK2, ATP Km app, ZLYTE.
In experiment [5] the target is off-target kinases (Homo sapiens, UniProt P49761). As to conditions: CLK3, ZLYTE, ATP Km app.
For experiment [6], the target named is off-target kinases (Homo sapiens, UniProt P49674).

Experimental findings from US11572590B2, “Methods for evaluating tumor cell spheroids using 3D microfluidic cell culture device” (Dana-Farber Cancer Institute, Inc., priority 2017, dated 2023) are described below.

Read-outs that look alike come from different tables or passages of the source.

Sequence of off-target kinases (Homo sapiens, UniProt Q9H0K1) (Q9H0K1 whole entry): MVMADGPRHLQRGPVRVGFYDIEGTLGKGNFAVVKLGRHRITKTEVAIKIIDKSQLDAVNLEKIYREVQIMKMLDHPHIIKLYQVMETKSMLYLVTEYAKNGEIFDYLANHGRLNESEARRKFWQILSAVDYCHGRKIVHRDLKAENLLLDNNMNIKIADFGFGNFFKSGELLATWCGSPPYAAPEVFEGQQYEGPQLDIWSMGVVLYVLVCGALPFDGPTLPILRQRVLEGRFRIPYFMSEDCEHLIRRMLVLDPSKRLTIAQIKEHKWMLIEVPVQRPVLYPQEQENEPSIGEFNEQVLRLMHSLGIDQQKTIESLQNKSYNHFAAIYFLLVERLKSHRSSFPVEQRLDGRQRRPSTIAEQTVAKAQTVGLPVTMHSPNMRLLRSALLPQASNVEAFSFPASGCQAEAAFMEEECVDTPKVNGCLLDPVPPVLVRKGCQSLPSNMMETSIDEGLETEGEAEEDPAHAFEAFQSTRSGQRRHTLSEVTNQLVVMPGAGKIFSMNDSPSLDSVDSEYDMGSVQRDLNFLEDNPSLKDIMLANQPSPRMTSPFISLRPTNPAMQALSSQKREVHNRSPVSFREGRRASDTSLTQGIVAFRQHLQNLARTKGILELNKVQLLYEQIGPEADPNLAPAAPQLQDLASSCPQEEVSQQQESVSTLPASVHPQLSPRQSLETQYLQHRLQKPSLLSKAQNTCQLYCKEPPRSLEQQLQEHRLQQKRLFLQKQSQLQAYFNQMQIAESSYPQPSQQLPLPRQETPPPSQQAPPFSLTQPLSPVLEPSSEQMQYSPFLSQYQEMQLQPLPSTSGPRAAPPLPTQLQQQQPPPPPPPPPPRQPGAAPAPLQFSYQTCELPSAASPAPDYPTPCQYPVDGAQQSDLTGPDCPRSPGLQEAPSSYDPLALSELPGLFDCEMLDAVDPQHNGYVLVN
Sequence of off-target kinases (Homo sapiens, UniProt P49674) (P49674 whole entry): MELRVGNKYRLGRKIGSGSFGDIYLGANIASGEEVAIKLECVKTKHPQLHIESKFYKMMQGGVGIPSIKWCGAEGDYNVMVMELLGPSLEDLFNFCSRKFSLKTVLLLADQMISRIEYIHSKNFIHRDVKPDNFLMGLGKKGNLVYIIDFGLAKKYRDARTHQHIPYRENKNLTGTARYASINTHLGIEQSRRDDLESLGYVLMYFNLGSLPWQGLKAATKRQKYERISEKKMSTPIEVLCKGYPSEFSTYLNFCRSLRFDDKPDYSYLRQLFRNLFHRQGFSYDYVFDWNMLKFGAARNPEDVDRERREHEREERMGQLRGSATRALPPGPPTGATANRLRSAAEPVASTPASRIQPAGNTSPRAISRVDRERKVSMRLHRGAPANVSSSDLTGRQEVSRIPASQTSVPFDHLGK
Sequence of off-target kinases (Homo sapiens, UniProt P49761) (P49761 whole entry): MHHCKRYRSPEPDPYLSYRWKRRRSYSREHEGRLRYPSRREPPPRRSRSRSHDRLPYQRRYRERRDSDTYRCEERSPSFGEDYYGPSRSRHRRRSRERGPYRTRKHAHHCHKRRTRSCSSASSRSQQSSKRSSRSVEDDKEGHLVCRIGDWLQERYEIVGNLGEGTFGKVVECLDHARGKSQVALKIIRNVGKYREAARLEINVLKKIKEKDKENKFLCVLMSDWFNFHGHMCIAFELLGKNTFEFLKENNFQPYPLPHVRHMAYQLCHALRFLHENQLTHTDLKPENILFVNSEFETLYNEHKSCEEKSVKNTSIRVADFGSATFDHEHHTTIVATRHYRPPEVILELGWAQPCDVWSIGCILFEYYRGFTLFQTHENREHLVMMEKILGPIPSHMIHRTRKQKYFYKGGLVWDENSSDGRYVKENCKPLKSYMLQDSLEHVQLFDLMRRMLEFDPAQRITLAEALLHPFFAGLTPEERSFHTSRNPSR
Sequence of off-target kinases (Homo sapiens, UniProt P06239) (P06239 whole entry): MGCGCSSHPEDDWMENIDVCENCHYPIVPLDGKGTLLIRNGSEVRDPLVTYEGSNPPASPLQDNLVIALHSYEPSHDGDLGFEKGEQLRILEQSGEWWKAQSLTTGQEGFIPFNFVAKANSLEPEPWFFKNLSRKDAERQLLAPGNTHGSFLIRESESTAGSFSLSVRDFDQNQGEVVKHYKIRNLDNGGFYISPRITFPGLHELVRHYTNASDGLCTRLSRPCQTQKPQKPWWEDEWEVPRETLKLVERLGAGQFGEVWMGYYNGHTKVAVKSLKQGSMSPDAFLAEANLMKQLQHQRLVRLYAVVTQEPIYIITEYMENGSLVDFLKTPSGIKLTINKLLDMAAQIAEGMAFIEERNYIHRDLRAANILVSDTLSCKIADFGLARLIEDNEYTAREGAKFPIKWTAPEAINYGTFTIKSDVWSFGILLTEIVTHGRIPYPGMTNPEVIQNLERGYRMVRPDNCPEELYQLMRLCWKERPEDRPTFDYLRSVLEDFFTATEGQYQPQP

As to `N#Cc1cc(-c2ncnc(Nc3ccc(N4CCN(C5COC5)CC4)cc3)n2)ccc1OC1CCOCC1` [Compound 1, 5-(4-((4-(4-(oxetan-3-yl)piperazin-1-yl)phenyl)amino)-1,3,5-triazin-2-yl)-2-((tetrahydro-2H-pyran-4-yl)oxy)benzonitrile], the inhibition turned out to be 41% at off-target kinases [1] (read-out: % Inhibition 1); 38% at off-target kinases [1] (read-out: % Inhibition 2); 40% on off-target kinases [1] (read-out: % Inhibition Avg); 5% at off-target kinases [2] (read-out: % Inhibition 1); 7% at off-target kinases [2] (read-out: % Inhibition 2); 6% at off-target kinases [2] (read-out: % Inhibition Avg). The inhibition on off-target kinases [3] (read-out: % Inhibition 1) came to 94%; at off-target kinases [3] (read-out: % Inhibition 2) it was 84%; on off-target kinases [3] (read-out: % Inhibition Avg), 89%; at off-target kinases [4] (read-out: % Inhibition 1), 88%; at off-target kinases [4] (read-out: % Inhibition 2), 88%; at off-target kinases [4] (read-out: % Inhibition Avg) it was 88%. The inhibition on off-target kinases [5] (read-out: % Inhibition 1) was 1%; on off-target kinases [5] (read-out: % Inhibition 2) it was 3%; at off-target kinases [5] (read-out: % Inhibition Avg) it was 2%; on off-target kinases [6] (CSNK1E (CK1 epsilon), ZLYTE, ATP Km app, read-out: % Inhibition 2), 4%; at off-target kinases [6] (CSNK1E (CK1 epsilon), ZLYTE, ATP Km app, read-out: % Inhibition Avg) it was 1%; on off-target kinases [6] (read-out: % Inhibition 1), -2%.
